Source: patent US8105835B2, “Method for micropropagation of monocots based on sustained totipotent cell cultures” (The University of South Carolina, priority 2007, dated 2012)

Tests used:
[1] = test system: monocot embryogenic cell culture; assay: Transfer of culture from auxin plus cytokinin medium to medium with cytokinin only; format: cell-based; settings: medium without auxin but maintaining the cytokinin
Experimental: As known to those of skill in the art, cytokinins, both natural and synthetic, are used to induce shoot formation while inhibiting root formation (Trigiano and Gray, Plant tissue culture concepts and laboratory exercises. Second ed., Boca Raton: CRC Press (2000)).
In one embodiment, the tertiary medium is prepared by adding to sterile water (a) the cytokinin, thidiazuron; (b) sucrose, 30 g/l; (c) Miller's salt solution (6% w/v, KH2 PO4), about 3 ml; and (d) MS salts, 4.3 g/l. In one embodiment the concentration of the thidiazuron is from about 0.01 mg/l to about 1 mg/l. In another embodiment, the concentration of the thidiazuron is about 0.02 mg/l.

[2] = test system: Arundo donax explants (cross-sectional segments of immature inflorescence); assay: Phosphinothricin selection of explants on primary solid culture medium; format: cell-based; settings: 10 mg/L, four weeks selection, FIG. 6A
Experimental: Agrobacterium tumefaciens carrying the plasmid, pMSF3022, was used to transform Arundo donax explants (cross-sectional segments of immature inflorescence). Plasmid pMSF3022 carries the bar gene that confers resistance to phosphinothricin and provides a positive selection and the gfp (green fluorescent protein) gene which provides a visual selection of transformants. Antibiotic resistant transformants were selected for four weeks after gene transfer by incubating the explants on primary solid culture medium with or without phosphinothricin and containing ticarcillin at […] concentration to eliminate residual Agrobacterium. As shown in FIG. 6A control explants (untransformed) were killed by 10 mg/L of phosphinothricin (antibiotic/herbicide). In the absence of the antibiotic/herbicide, the control explants develop embryogenic callus (FIG. 6B). In contrast, the explants that were cocultivated with the A. tumefaciens carrying the plasmid, pMSF3022 (transformed), were able to develop embryogenic callus in the presence of 10 mg/L of phosphinothricin (FIG. 6C).

Row | Structure (SMILES) | effect on shoot elongation and root formation [1] | effect on control (untransformed) explants [2]
1 | O=C(Nc1ccccc1)Nc1cnns1 [thidiazuron] | not only was shoot elongation promoted but unexpectedly root formation also resulted | 
2 | CP(=O)(O)CC[C@H](N)C(=O)O [phosphinothricin] |  | killed
